Test results reported in US10316017B2, “COT modulators and methods of use thereof” (Gilead Sciences, Inc., priority 2015, dated 2019).
Read-outs that look alike come from different tables or passages of the source.

How the values were obtained:
[1] = tested on: TNFα production in LPS-stimulated human monocytes; test: Cot Monocyte TNFα Cell Based Assay; conditions: Homo sapiens, Monocyte, read-out: EC50 TNF
How it was run: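 Human monocytes (5,000 cells/well) pretreated with compound for 1 hour at 37° C (0.5% DMSO), then stimulated with 50 pg/ml LPS for 4 hours. Total TNFα measured by TR-FRET after overnight antibody incubation at room temp, expressed as percent of control between unstimulated and stimulated cells.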

[2] = target: T1, human Cot catalytic domain (30-397 amino acids) (Homo sapiens, UniProt P41279); test: High Throughput Cot Biochemical Assay (KinEASE TR-FRET); conditions: read-out: IC50 HTRF
T1 construct: Purified recombinant human Cot catalytic domain (30-397 amino acids) was purchased from Cama Biosciences; purchased Cama Biosciences (so in the source)
How it was run: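 Recombinant human Cot catalytic domain (aa 30-397), 5 nM, with 1 μM STK3 peptide and 400 μM ATP in MOPS pH 7.0 buffer with MgOAc, DTT, BSA, NP-40, glycerol, 0.1% DMSO. Phosphorylated XL665-peptide detected by Eu-[…] antibody TR-FRET.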

[3] = TNFα in LPS-stimulated human monocytes
[4] = Cot biochemical HTRF (KinEASE TR-FRET) assay
[5] = LPS-stimulated human monocytes, TNFα TR-FRET
[6] = Cot KinEASE TR-FRET, 400 μM ATP

T1 sequence (P41279 30-397): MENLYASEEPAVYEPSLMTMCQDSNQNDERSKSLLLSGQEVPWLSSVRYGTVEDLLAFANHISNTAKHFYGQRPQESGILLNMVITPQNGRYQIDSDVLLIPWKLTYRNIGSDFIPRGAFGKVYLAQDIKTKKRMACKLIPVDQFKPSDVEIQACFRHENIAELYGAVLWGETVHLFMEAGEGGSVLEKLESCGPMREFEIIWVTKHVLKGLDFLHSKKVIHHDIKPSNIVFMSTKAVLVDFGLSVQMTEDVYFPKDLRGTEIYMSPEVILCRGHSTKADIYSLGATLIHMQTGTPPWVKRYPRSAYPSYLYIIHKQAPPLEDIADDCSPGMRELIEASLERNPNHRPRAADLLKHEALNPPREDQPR

EC50 [1, 3] [nM]	IC50 [2, 4] [nM]	EC50 [1, 5] [nM]	IC50 [2, 6] [nM]	Structure (SMILES)
466	11	–	–	Cc1cc(F)ccc1C(Nc1cc(Cl)c2ncc(C#N)c(Nc3ccc(F)c(Cl)c3)c2c1)c1cn(C2CCNCC2)nn1 (stereo not shown) [Example 884, 8-chloro-4-((3-chloro-4-fluorophenyl)amino)-6-(((4-fluoro-2-methylphenyl) (1-(piperidin-4-yl)-1H-1,2,3-triazol-4-yl)methyl)amino)quinoline-3-carbonitrile]
287	9	–	–	CCN1CCC(n2cc(C(Nc3cc(Cl)c4ncc(C#N)c(Nc5ccc(F)c(Cl)c5)c4c3)c3ccc(F)cc3C)nn2)CC1 (stereo not shown) [Example 885, 8-chloro-4-((3-chloro-4-fluorophenyl)amino)-6-(((1-(1-ethylpiperidin-4-yl)-1H-1,2,3-triazol-4-yl)(4-fluoro-2-methylphenyl)methyl)amino) quinoline-3-carbonitrile]
1890	70	–	–	Cn1cnc(C(Nc2cc(Cl)c3ncc(C#N)c(Nc4ccc(F)c(Cl)c4)c3c2)c2ccc(F)cc2)c1 (stereo not shown) [Example 887, 8-chloro-4-((3-chloro-4-fluorophenyl)amino)-6-(((4-fluorophenyl)(1-methyl-1H-imidazol-4-yl)methyl)amino)quinoline-3-carbonitrile]
362	32	–	–	CCN1CCC(n2cc(C(Nc3cc(Cl)c4ncc(C#N)c(Nc5ccc(F)c(Cl)c5)c4c3)c3cc(F)c(F)c(F)c3)nn2)CC1 (stereo not shown) [Example 889, 8-chloro-4-((3-chloro-4-fluorophenyl)amino)-6-(((1-(1-ethylpiperidin-4-yl)-1H-1,2,3-triazol-4-yl)(3,4,5-trifluorophenyl)methyl)amino) quinoline-3-carbonitrile]
1750	168	–	–	Cn1cnc(C(Nc2cc(Cl)c3ncc(C#N)c(Nc4ccc(F)c(Cl)c4)c3c2)c2ccc(Cl)cc2)c1 (stereo not shown) [Example 894, 8-chloro-4-((3-chloro-4-fluorophenyl)amino)-6-(((4-chlorophenyl)(1-methyl-1H-imidazol-4-yl)methyl)amino)quinoline-3-carbonitrile]
1000	56	–	–	Cn1cnc(C(Nc2cc(Cl)c3ncc(C#N)c(Nc4ccc(F)c(Cl)c4)c3c2)c2ccccc2)c1 (stereo not shown) [Example 895, 8-chloro-4-((3-chloro-4-fluorophenyl)amino)-6-(((1-methyl-1H-imidazol-4-yl)(phenyl)methyl)amino) quinoline-3-carbonitrile]
128	5	–	–	CCN1CCC(n2cc(C(Nc3cc(Cl)c4ncc(C#N)c(Nc5ccc(F)c(Cl)c5)c4c3)c3cccc(F)c3)nn2)CC1 (stereo not shown) [Example 907, 8-chloro-4-((3-chloro-4-fluorophenyl)amino)-6-(((1-(1-ethylpiperidin-4-yl)-1H-1,2,3-triazol-4-yl)(3-fluorophenyl)methyl)amino) quinoline-3-carbonitrile]
–	–	8580	194	CCN1CCC(n2cc([C@H](Nc3cc(Cl)c4ncc(C#N)c(Nc5ccc(F)c(Cl)c5)c4c3)c3ccccc3)nn2)CC1 [Example 918, (R)-8-chloro-4-((3-chloro-4-fluorophenyl)amino)-6-(((1-(1-ethylpiperidin-4-yl)-1H-1,2,3-yl)(phenyl)methyl)amino) quinoline-3-carbonitrile]
–	–	187	10	[2H][C@](Nc1cc(Cl)c2ncc(C#N)c(N[C@H](CCOC)c3ccccc3)c2c1)(c1ccc(F)cc1)c1cn(C2CC2)nn1 [Example 925, 8-chloro-6-(((1-cyclopropyl-1H-1,2,3-triazol-4-yl)(4-fluorophenyl)methyl-d)amino)-4-(((R)-3-methoxy-1-phenylpropyl)amino)quinoline-3-carbonitrile]
–	–	576	34	N#Cc1cnc2c(Cl)cc(N[C@@H](c3ccc(F)cc3)c3cn(C4CC4)nn3)cc2c1NCC12CC(C1)C2 [Example 927, (S)-4-((bicyclo[1.1.1]pentan-1-ylmethyl)amino)-8-chloro-6-(((1-cyclopropyl-1H-1,2,3-triazol-4-fluorophenyl)methyl)amino) quinoline-3-carbonitrile]
–	–	443	68	N#Cc1cnc2c(Cl)cc(N[C@H](c3cn(C4CC4)nn3)c3ccccc3Cl)cc2c1NCC12CC(C1)C2 [Example 928, (S)-4-((bicyclo[1.1.1]pentan-1-ylmethyl)amino)-8-chloro-6-(((2-chlorophenyl)(1-cyclopropyl-1H-1,2,3-triazol-4-yl)methyl)amino)quinoline-3-carbonitrile]
–	–	98	7	[2H][C@](Nc1cc(Cl)c2ncc(C#N)c(NCC(C)(C)C)c2c1)(c1ccc(Cl)cc1)c1cn(C2CCN(C(C)(C)C)CC2)nn1 [Example 929, (S)-6-(((1-(1-(tert-butyl)piperidin-4-yl)-1H-1,2,3-triazol-4-yl)(4-chlorophenyl)methyl-d)amino)-8-chloro-4-(neopentylamino)quinoline-3-carbonitrile]
–	–	66	5	[2H][C@@](Nc1cc(Br)c2ncc(C#N)c(N[C@H](CCC#N)c3ccccc3)c2c1)(c1cn(C2CC2)nn1)c1ccccc1Cl [Example 930, 8-bromo-6-(((S)-(2-chlorophenyl)(1-cyclopropyl-1H-1,2,3-triazol-4-yl)methyl-d)amino)-4-(((R)-3-cyano-1-phenylpropyl)amino) quinoline-3-carbonitrile]
–	–	447	27	[2H][C@](Nc1cc(S(C)(=O)=O)c2ncc(C#N)c(NCC(C)(C)C)c2c1)(c1ccc(F)cc1)c1cn(C2CC2)nn1 [Example 931, (S)-6-(((1-cyclopropyl-1H-1,2,3-triazol-4-yl)(4-fluorophenyl)methyl-d)amino)-8-(methylsulfonyl)-4-(neopentylamino)quinoline-3-carbonitrile]
–	–	≥ 1000	314	[2H][C@](Nc1cc(Cl)c2ncc(C#N)c(Nc3cccc4ccccc34)c2c1)(c1ccc(F)cc1)c1cn(C2CC2)nn1 [Example 933, (S)-8-chloro-6-(((1-cyclopropyl-1H-1,2,3-triazol-4-yl)(4-fluorophenyl)methyl-d)amino)-4-(naphthalen-1-ylamino) quinoline-3-carbonitrile]
–	–	≥ 1000	371	[2H][C@](Nc1cc(Cl)c2ncc(C#N)c(Nc3cccc(Cl)c3C#N)c2c1)(c1ccc(F)cc1)c1cn(C2CC2)nn1 [Example 934, (S)-8-chloro-4-((3-chloro-2-cyanophenyl)amino)-6-(((1-cyclopropyl-1H-1,2,3-triazol-4-yl)(4-fluorophenyl)methyl-d)amino)quinoline-3-carbonitrile]
–	–	≥ 1000	≥ 10000	[2H][C@](Nc1cc(Cl)c2ncc(C#N)c(Nc3cccc(Cl)c3S(C)(=O)=O)c2c1)(c1ccc(F)cc1)c1cn(C2CC2)nn1 [Example 935, (S)-8-chloro-4-((3-chloro-2-(methylsulfonyl)phenyl)amino)-6-(((1-cyclopropyl-1H-1,2,3-triazol-4-yl)(4-fluorophenyl)methyl-d)amino)quinoline-3-carbonitrile]
–	–	222	12	[2H][C@](Nc1cc(Cl)c2ncc(C#N)c(NCC(C)(C)C)c2c1)(c1ccc(Cl)cc1)c1cn(C2CC2)nn1 [Example 936, (S)-8-chloro-6-(((4-chlorophenyl)(1-cyclopropyl-1H-1,2,3-triazol-4-yl)methyl-d)amino)-4-(neopentylamino) quinoline-3-carbonitrile]
–	–	35	3	[2H][C@](Nc1cc(Br)c2ncc(C#N)c(N[C@H](CCC#N)c3ccccc3)c2c1)(c1ccc(F)cc1)c1cn(C2CC2)nn1 [Example 937, 8-bromo-4-(((R)-3-cyano-1-phenylpropyl)amino)-6-(((S)-(1-cyclopropyl-1H-1,2,3-triazol-4-yl)(4-fluorophenyl)methyl-d)amino)quinoline-3-carbonitrile]
–	–	71	6	[2H][C@](Nc1cc(Cl)c2ncc(C#N)c(N[C@H](CCC#N)c3ccccc3)c2c1)(c1ccc(F)cc1)c1cn(C2(C(F)(F)F)CC2)nn1 [Example 938, 8-chloro-4-(((R)-3-cyano-1-phenylpropyl)amino)-6-(((S)-(4-fluorophenyl)(1-(1-(trifluoromethyl)cyclopropyl)-1H-1,2,3-triazol-4-yl)methyl-d)amino)quinoline-3-carbonitrile]
–	–	92	4	[2H][C@@](Nc1cc(C(C)=O)c2ncc(C#N)c(N[C@H](CCC#N)c3ccccc3)c2c1)(c1cn(C2CC2)nn1)c1ccccc1Cl [Example 939, 8-acetyl-6-(((S)-(2-chlorophenyl)(1-cyclopropyl-1H-1,2,3-triazol-4-yl)methyl-d)amino)-4-(((R)-3-cyano-1-phenylpropyl)amino) quinoline-3-carbonitrile]
–	–	144	4	CC[C@@H](Nc1c(C#N)cnc2c(Br)cc(N[C@@H](c3cccc(-c4ncco4)c3)c3cn(C4CC4)nn3)cc12)c1ccccc1 [Example 940, 8-bromo-6-(((S)-(1-cyclopropyl-1H-1,2,3-triazol-4-yl)(3-(oxazol-2-yl)phenyl)methyl)amino)-4-(((R)-1-phenylpropyl)amino) quinoline-3-carbonitrile]
–	–	52	1	CC[C@@H](Nc1c(C#N)cnc2c(C#N)cc(N[C@@H](c3cccc(-c4ncco4)c3)c3cn(C4CC4)nn3)cc12)c1ccccc1 [Example 941, 6-(((S)-(1-cyclopropyl-1H-1,2,3-triazol-4-yl) (3-(oxazol-2-yl)phenyl)methyl)amino)-4-(((R)-1-phenylpropyl)amino) quinoline-3,8-dicarbonitrile]
